Results as given in patent US10730911B2, “Backbone-cyclized peptidomimetics with GLP-1R modulating activity” (POLYPHOR AG, priority 2015, dated 2020).
Where a SMILES comes first, the peptide text is derived from it. [ ]: non-standard residue; d: D form. The star is where a group is joined. Trp(5-OH) = N[C@@H](Cc1c[nH]c2ccc(O)cc12)C(=O)O; Tyr(Ph) = N[C@@H](Cc1ccc(Oc2ccccc2)cc1)C(=O)O; His(π-Bn) = N[C@@H](Cc1cncn1Cc1ccccc1)C(=O)O; Phe(4-NH2) = Nc1ccc(C[C@H](N)C(=O)O)cc1; 3Pal = N[C@@H](Cc1cccnc1)C(=O)O; Aic = NC1(C(=O)O)Cc2ccccc2C1; Ac6c = NC1(C(=O)O)CCCCC1; Aib = CC(C)(N)C(=O)O; Bn = c1ccc(C*)cc1

Molecular target: T1, human glucagon-like peptide-1 receptor (GLP-1R) (Homo sapiens, UniProt P43220)
T1 construct: host or cells: CHO chAMPion cells
Test: Human GLP-1 receptor cell-based assay (flash luminescence, Target Activation phase)
Settings: CHO chAMPion cells stably co-expressing human GLP-1R, Photina and cAMP-activated calcium channel; agonist activity; normalization by forskolin at 10 μM; ^a) values from single experiment; read-out: EC50 (μM) Target Activation (TA)
From the text: CHO chAMPion cells (Axxam SpA; S. Corazza, Assay Drug Dev. Technol. 2009, 7, 304-307) stably co-expressing the human glucagon-like peptide-1 receptor (GLP-1R), the Ca^2+-sensitive photoprotein PHOTINA® (S. Bovolenta et al., J. Biomol. Screen. 2007, 12, 694-704) and a mutated cAMP-activated calcium ion channel (WO2004/083803 A2) were used to monitor GLP-1R signaling after stimulation with an agonist. Activation of the Gas-coupled GPCR GLP-1R was monitored by measuring the flash luminescence of the Ca^2+-sensitive photoprotein as reporter system with FLIPR^TETRA screening instrumentation (Molecular Devices) upgraded with an ICCD Camera (MDC). For data quality check and data analysis the Genedata SCREENER® software was used.
The reference agonist GLP-1 (glucagon-like peptide-1 amide fragment 7-36) and forskolin were purchased from Sigma (cat. G8147 and F6886, respectively) and prepared according to each ligand's specifications. All handling of ligands were done to ensure proper control throughout the experiments. The steps of the implemented workflow and data analysis are mainly as follows:
Stably transfected chAMPion cells are seeded 10000 c/w in 384 MTP in Dulbecco's MEM/nutrient mix F12 (BioWhittaker cat. BE04-687F/U1; 500 mL) supplemented with sodium pyruvate (BioWhittaker cat. BE13-115E; 5 mL of 100 mM solution), HEPES (BioWhittaker cat. BE17-737E; 6.5 mL of 1M solution), sodium bicarbonate (BioWhittaker cat. BE17-613E; 25 mL of 7.5% solution), fetal bovine serum (Euroclone cat. ECS 0180L; 50 mL), penicillin-streptomycin (BioWhittaker cat. DE17-602E; 5 mL of 100×solution), 1 mg/mL G418 (selection antibiotic for GLP-1R) and 200 μg/mL hygromycin in 25 μL/well for 24 hours. On the day of the experiment, plates are removed from the incubator, freed from the growth medium, equilibrated at room temperature for 1 h, loaded with 30 μl/well of Ca^2+ free Tyrode's buffer containing 20 μM coelentrazine and 500 μM IBMX, and incubated for 4 hours at room temperature.
All compounds were tested at 8 concentrations, starting from 50 μM in quadruplicate, intra-plate (dilution step 1:2.15) to determine EC50 values. After incubation, the volume in all the wells is flattened to 20 αL by aspiration with a CYBIO®-VARIO pipettor. First Injection (10 μL of test compounds in Ca^2+ free Tyrode's buffer, DMSO 0.5% v/v and BSA 0.01%; or 10 μL of reference compounds GLP-1 or forskolin in Ca′ free Tyrode's buffer, DMSO 0.5% v/v and BSA 0.01%) is performed by the FLIPR^TETRA and the kinetic response is optionally monitored over a period of 60 seconds. Incubation for 30 minutes at room temperature is followed by the Second Injection (Tyrode's buffer+10 mM CaCl2)) and the kinetic response is monitored over a period of 60 seconds.
The kinetic response is divided into two distinct phases: monitoring the kinetic response after the First Injection, termed Compound Addition (CA), and monitoring the kinetic response after the Second Injection of 10 mM CaCl2, termed Target Activation (TA). Agonist activity of compounds is evaluated in the Target Activation (TA) phase and it is based on normalization to TA activation by forskolin at 10 μM or GLP-1 at 3.16 nM (EC100)
A good correlation was observed between EC50, data normalized by forskolin and by GLP-1.

T1 sequence (P43220 24-463): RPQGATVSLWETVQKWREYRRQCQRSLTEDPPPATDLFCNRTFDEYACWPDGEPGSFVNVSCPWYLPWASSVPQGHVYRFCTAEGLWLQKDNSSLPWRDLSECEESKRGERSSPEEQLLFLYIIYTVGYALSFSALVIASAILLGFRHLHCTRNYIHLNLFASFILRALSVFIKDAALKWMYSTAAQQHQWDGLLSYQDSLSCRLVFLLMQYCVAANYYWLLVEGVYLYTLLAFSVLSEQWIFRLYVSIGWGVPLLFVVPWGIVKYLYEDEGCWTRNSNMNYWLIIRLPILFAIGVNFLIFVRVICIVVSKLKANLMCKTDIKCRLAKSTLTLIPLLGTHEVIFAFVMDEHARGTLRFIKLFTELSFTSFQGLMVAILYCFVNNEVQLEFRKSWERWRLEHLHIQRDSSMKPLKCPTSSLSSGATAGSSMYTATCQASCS

SMILES	EC50
COc1ccc(C[C@@H]2NC(=O)[C@H](CCC(N)=O)NC(=O)[C@H](Cc3c[nH]c4ccccc34)NC(=O)[C@H](Cc3ccccc3)NC(=O)C3(CCCCC3)NC(=O)[C@H]3CCCN3C(=O)[C@H](Cc3ccc(O)cc3)NC(=O)[C@H](CCC(=O)O)NC(=O)[C@H](Cc3c[nH]c4ccccc34)NC(=O)[C@H](C)NC2=O)cc1 [compound 8, cyclo(-Phe-Trp-Gln-Tyr(Me)-Ala-Trp-Glu-Tyr-^DPro-Chx-)] (cyclo(FWQY(Me)AWEY[dP][Ac6c]))	0.35 ± 0.3 µM
COc1ccc(C[C@@H]2NC(=O)[C@H](CCC(=O)O)NC(=O)[C@H](Cc3c[nH]c4ccccc34)NC(=O)[C@H](C)NC(=O)[C@H](Cc3ccc(O)cc3)NC(=O)[C@H](CCC(N)=O)NC(=O)[C@H](Cc3c[nH]c4ccccc34)NC(=O)[C@H](Cc3ccccc3)NC(=O)C3(CCCCC3)NC(=O)[C@H]3CCCN3C2=O)cc1 [compound 9, cyclo(-Phe-Trp-Gln-Tyr-Ala-Trp-Glu-Tyr(Me)-^DPro-Chx-)] (cyclo(FWQYAWEY(Me)[dP][Ac6c]))	0.8 ± 0.69 µM
C[C@@H]1NC(=O)[C@H](Cc2ccc(O)cc2)NC(=O)[C@H](CCC(N)=O)NC(=O)[C@H](Cc2ccccc2)NC(=O)[C@H](Cc2ccccc2)NC(=O)C2(CCCCC2)NC(=O)[C@H]2CCCN2C(=O)[C@H](CCCNC(=N)N)NC(=O)[C@H](CCC(=O)O)NC(=O)[C@H](Cc2c[nH]c3ccccc23)NC1=O [compound 10, cyclo(-Phe-Phe-Gln-Tyr-Ala-Trp-Glu-Arg-^DPro-Chx-)] (cyclo(FFQYAWER[dP][Ac6c]))	0.39 ± 0.23 µM
C[C@@H]1NC(=O)[C@H](Cc2ccc(O)cc2)NC(=O)[C@H](CCC(N)=O)NC(=O)[C@H](Cc2ccc(Oc3ccccc3)cc2)NC(=O)[C@H](Cc2ccccc2)NC(=O)C(C)(C)NC(=O)[C@H]2CCCN2C(=O)[C@H](CCCNC(=N)N)NC(=O)[C@H](CCC(=O)O)NC(=O)[C@H](Cc2c[nH]c3ccccc23)NC1=O [compound 11, cyclo(-Phe-Tyr(Ph)-Gln-Tyr-Ala-Trp-Glu-Arg-^DPro-Aib-)] (cyclo(F[Tyr(Ph)]QYAWER[dP][Aib]))	0.54 ± 0.43 µM
CC(C)C[C@@H]1NC(=O)[C@H](Cc2c[nH]c3ccccc23)NC(=O)[C@H](Cc2ccccc2)NC(=O)C2(CCCCC2)NC(=O)[C@H]2CCCN2C(=O)[C@H](Cc2ccc(O)cc2)NC(=O)[C@H](CCC(=O)O)NC(=O)[C@H](Cc2c[nH]c3ccccc23)NC(=O)[C@H](C)NC(=O)[C@H](Cc2ccc(O)cc2)NC1=O [compound 12, cyclo(-Phe-Trp-Leu-Tyr-Ala-Trp-Glu-Tyr-^DPro-Chx-)] (cyclo(FWLYAWEY[dP][Ac6c]))	0.48 ± 0.24 µM
CC(C)C[C@@H]1NC(=O)[C@H](CCC(=O)O)NC(=O)[C@H](Cc2ccccc2)NC(=O)C2(Cc3ccccc3C2)NC(=O)[C@H]2CCCN2C(=O)[C@H](Cc2ccc(O)cc2)NC(=O)[C@H](CCC(=O)O)NC(=O)[C@H](Cc2c[nH]c3ccccc23)NC(=O)[C@H](C)NC(=O)[C@H](Cc2ccc(O)cc2)NC1=O [compound 13, cyclo(-Phe-Glu-Leu-Tyr-Ala-Trp-Glu-Tyr-^DPro-Ind-)] (cyclo(FELYAWEY[dP][Aic]))	0.66 ± 0.25 µM
C[C@@H]1NC(=O)[C@H](Cc2ccc(O)cc2)NC(=O)[C@H](CCC(N)=O)NC(=O)[C@H](Cc2ccc(O)cc2)NC(=O)[C@H](Cc2ccccc2)NC(=O)C2(CCCCC2)NC(=O)[C@H]2CCCN2C(=O)[C@H](Cc2ccc(O)cc2)NC(=O)[C@H](CCC(=O)O)NC(=O)[C@H](Cc2c[nH]c3ccccc23)NC1=O [compound 14, cyclo(-Phe-Tyr-Gln-Tyr-Ala-Trp-Glu-Tyr-^DPro-Chx-)] (cyclo(FYQYAWEY[dP][Ac6c]))	0.72 ± 0.43 µM
C[C@@H]1NC(=O)[C@H](Cc2ccc(O)cc2)NC(=O)[C@H](CCC(N)=O)NC(=O)[C@H](Cc2c[nH]c3ccccc23)NC(=O)[C@H](Cc2ccccc2)NC(=O)C2(CCCCC2)NC(=O)[C@H]2CCCN2C(=O)[C@H](Cc2cncn2Cc2ccccc2)NC(=O)[C@H](CCC(=O)O)NC(=O)[C@H](Cc2c[nH]c3ccccc23)NC1=O [compound 15, cyclo(-Phe-Trp-Gln-Tyr-Ala-Trp-Glu-His(Bn)-^DPro-Chx-)] (cyclo(FWQYAWE[His(π-Bn)][dP][Ac6c]))	0.7 ± 0.42 µM
CC(C)C[C@@H]1NC(=O)[C@H](CCC(=O)O)NC(=O)[C@H](Cc2ccccc2)NC(=O)C2(CCCCC2)NC(=O)[C@H]2CCCN2C(=O)[C@H](Cc2c[nH]c3ccccc23)NC(=O)[C@H](CCC(=O)O)NC(=O)[C@H](Cc2c[nH]c3ccccc23)NC(=O)[C@H](C)NC(=O)[C@H](Cc2ccc(O)cc2)NC1=O [compound 16, cyclo(-Phe-Glu-Leu-Tyr-Ala-Trp-Glu-Trp-^DPro-Chx-)] (cyclo(FELYAWEW[dP][Ac6c]))	0.41 µM
C[C@@H]1NC(=O)[C@H](Cc2ccc(O)cc2)NC(=O)[C@H](CCC(N)=O)NC(=O)[C@H](Cc2c[nH]c3ccccc23)NC(=O)[C@H](Cc2ccccc2)NC(=O)C2(CCCCC2)NC(=O)[C@H]2CCCN2C(=O)[C@H](Cc2c[nH]c3ccccc23)NC(=O)[C@H](CCC(=O)O)NC(=O)[C@H](Cc2c[nH]c3ccccc23)NC1=O [compound 17, cyclo(-Phe-Trp-Gln-Tyr-Ala-Trp-Glu-Trp-^DPro-Chx-)] (cyclo(FWQYAWEW[dP][Ac6c]))	0.6 ± 0.29 µM
C[C@@H]1NC(=O)[C@H](Cc2ccc(O)cc2)NC(=O)[C@H](CCC(N)=O)NC(=O)[C@H](Cc2c[nH]c3ccccc23)NC(=O)[C@H](Cc2ccccc2)NC(=O)C2(CCCCC2)NC(=O)[C@H]2CCCN2C(=O)[C@H](Cc2c[nH]c3ccc(O)cc23)NC(=O)[C@H](CCC(=O)O)NC(=O)[C@H](Cc2c[nH]c3ccccc23)NC1=O [compound 18, cyclo(-Phe-Trp-Gln-Tyr-Ala-Trp-Glu-Trp(5OH)-^DPro-Chx-)] (cyclo(FWQYAWE[Trp(5-OH)][dP][Ac6c]))	0.82 ± 0.55 µM
C[C@@H]1NC(=O)[C@H](Cc2ccc(O)cc2)NC(=O)[C@H](CCC(N)=O)NC(=O)[C@H](Cc2cccnc2)NC(=O)[C@H](Cc2ccccc2)NC(=O)C2(CCCCC2)NC(=O)[C@H]2CCCN2C(=O)[C@H](CCCNC(=N)N)NC(=O)[C@H](CCC(=O)O)NC(=O)[C@H](Cc2c[nH]c3ccccc23)NC1=O [compound 19, cyclo(-Phe-3Pal-Gln-Tyr-Ala-Trp-Glu-Arg-^DPro-Chx-)] (cyclo(F[3Pal]QYAWER[dP][Ac6c]))	0.72 ± 0.38 µM
CC(C)C[C@@H]1NC(=O)[C@H](Cc2c[nH]cn2)NC(=O)[C@H](Cc2ccccc2)NC(=O)C2(CCCCC2)NC(=O)[C@H]2CCCN2C(=O)[C@H](Cc2ccc(O)cc2)NC(=O)[C@H](CCC(=O)O)NC(=O)[C@H](Cc2c[nH]c3ccccc23)NC(=O)[C@H](C)NC(=O)[C@H](Cc2ccc(O)cc2)NC1=O [compound 20, cyclo(-Phe-His-Leu-Tyr-Ala-Trp-Glu-Tyr-^DPro-Chx-)] (cyclo(FHLYAWEY[dP][Ac6c]))	0.59 ± 0.35 µM
C[C@@H]1NC(=O)[C@H](Cc2ccc(O)cc2)NC(=O)[C@H](CCC(N)=O)NC(=O)[C@H](Cc2ccc(N)cc2)NC(=O)[C@H](Cc2ccccc2)NC(=O)C2(CCCCC2)NC(=O)[C@H]2CCCN2C(=O)[C@H](CCCNC(=N)N)NC(=O)[C@H](CCC(=O)O)NC(=O)[C@H](Cc2c[nH]c3ccccc23)NC1=O [compound 21, cyclo(-Phe-Phe(4NH2)-Gln-Tyr-Ala-Trp-Glu-Arg-^DPro-Chx-)] (cyclo(F[Phe(4-NH2)]QYAWER[dP][Ac6c]))	0.67 ± 0.28 µM
C[C@@H]1NC(=O)[C@H](Cc2ccc(O)cc2)NC(=O)[C@H](CCC(N)=O)NC(=O)[C@H](Cc2c[nH]c3ccccc23)NC(=O)[C@H](Cc2ccccc2)NC(=O)C2(CCCCC2)NC(=O)[C@H]2CCCN2C(=O)[C@H](Cc2ccc(OCc3ccccc3)cc2)NC(=O)[C@H](CCC(=O)O)NC(=O)[C@H](Cc2c[nH]c3ccccc23)NC1=O [compound 22, cyclo(-Phe-Trp-Gln-Tyr-Ala-Trp-Glu-Tyr(Bn)-^DPro-Chx-)] (cyclo(FWQYAWEY(Bn)[dP][Ac6c]))	0.72 ± 0.4 µM
